Test results as given in patent publication US20260263403A1, “COMPOSITIONS AND METHODS FOR TREATING TRAUMATIC BRAIN INJURY” (THE CHILDREN'S HOSPITAL OF PHILADELPHIA, priority 2023, published 2026).

Experiments:
[1] = solubility/precipitation of BCAA drink during study preparation; format: physicochemical; details: 60 g/day dose divided twice daily, initial study preparation
Description: The three BCAAs, valine, isoleucine, and leucine, were combined together in a 1:1:1 ratio for the four treatment doses. […] Given the unknown optimal dose of BCAA supplementation for concussion, doses of 15 g, 30 g, 45 g, and 60 g divided twice daily were chosen as initial treatment doses.

[2] = test system: acetate levels in the brain; details: dietary supplement, within one hour of administration; cited from earlier work

SMILES	precipitation at the highest dose [1]	increase of acetate levels in the brain [2]
CC(C)C[C@H](N)C(=O)O [leucine]	precipitating at a lower concentration than expected	–
CC(=O)OCC(COC(C)=O)OC(C)=O [GTA, glyceryl triacetate]	–	over 15 fold
